Measured values taken from patent US12691100B2, “NMT inhibitor treatment of a senescence-associated disease or disorder of the liver” (Imperial College Innovations Limited, priority 2020, dated 2026).

Tests used:
IMR90 ER:RAS cells = test: Intracellular levels of SASP cytokines IL-6 and IL-8 by immunofluorescence; format: cell-based, human; details: 4OHT-induced senescent cells; 7 days after addition of the drugs; FIGS. 12A-C
Procedure: Immunofluorescence staining was carried out by first fixing wells of 96 well plate at desired timepoint for 1 hour using 4% PFA (w/v, in PBS) followed by washing 3 times with PBS. Wells were then permeabilized using 0.2% Triton® X-100 (v/v, PBS) for 10 min or with 0.5% Triton® X-100 (v/v, PBS) for COPI staining. Wells were then washed twice with PBS to halt permeabilization and then non-specific antibody binding blocked by incubation with a blocking solution for 1 hour at RT. Blocking solution contained 1% BSA (w/v, PBS) supplemented with 0.4% Fish Skin Gelatin (v/v, PBS). Primary antibodies were diluted in respective blocking solution (see ‘Antibodies’ for dilutions), blocking solution removed from well and incubated with primary antibody solution for 1 hour at RT. […]
High content image analysis was carried out using the InCell Investigator 2.7.3 software (GE Healthcare®). […] Quantification for nuclear staining was measured as average pixel intensity (grey scale) for the wavelength of fluorophore across the area of the nuclear mask. Cytoplasmic staining quantification was of either the average pixel intensity or the coefficient of variance of pixel intensities within collar area. […]
The intracellular levels of two SASP components, IL-6 and IL-8 were assessed using stained cells. […]

[1] = Blood markers (Vetscan) in a separate cohort of old mice; format: in vivo, female C57/BL6 mice; details: ~19 mo females, before 4th round, Compound 2 10 mg/kg, Compound 3 25 mg/kg, versus vehicle
Procedure: Blood was collected prior to each round of injection for physiological assessments. Mice were allowed to rest 4 weeks prior to being culled and organs collected for freezing in OCT, paraffin embedding and snap-freezing for RNA extraction.
For analysis of immune cell composition in whole blood, tail-vein blood was collected 2 days after last treatment. Whole blood was diluted in saline to a volume of […] and ran on a Sysmex XE2100 automated cell counter. Blood glucose levels were determined by collecting whole-blood from tail vein into heparinised tubes (Abraxis), 120-140 μL of whole-blood to be loaded onto a comprehensive diagnostic profile reagent rotor (Abraxis) and run on a VetScan VS2 Chemistry Analyzer (Abraxis: 500-7123).
Further experiments were performed on a separate cohort of old mice. […] This regimen was repeated 4 more times and blood was collected for Vetscan measurements prior to the 4th round of treatment (FIG. 19). At that stage, ~19 mo females presented elevated levels of ALT, amylase and glucose in blood when compared with young mice (FIG. 20A).

Structure (SMILES) | Intracellular levels of IL-6 and IL-8 (IMR90 ER:RAS cells) | ALT in blood ([1]; FIG. 20A) | Amylase in blood ([1]; FIG. 20B) | Glucose in blood ([1]; FIG. 20C)
Cc1nn(C)c(C)c1CCOc1c(-c2ccc3c(c2)c(CN(C)C)nn3C)ccc(F)c1F [Compound 1, 1-(5-(3,4-difluoro-2-(2-(1,3,5-trimethyl-1H-pyrazol-4-yl)ethoxy)phenyl)-1-methyl-1H-indazol-3-yl)-N,N-dimethylmethanamine] | selectively resulted in an intracellular accumulation of these cytokines on senescent cells |  |  | 
Cc1c(NS(=O)(=O)c2c(Cl)cc(-c3ccnc(N4CCNCC4)c3)cc2Cl)c(CC(C)C)nn1C [Compound 2] | selectively resulted in an intracellular accumulation of these cytokines on senescent cells | lower level | lower level | lower level
